Values quoted from earlier work as cited in US4801577A, “Nonapeptide and decapeptide analogs of LHRH useful as LHRH antagonists” (Syntex (U.S.A.) Inc., priority 1987, dated 1989).

Tested on: rat mast cells
Conditions: rat mast cells in vitro

Row | Substance | ED50 for histamine release
1 | (N-Ac-D-Nal(2)^1, D-pCl-Phe^2, D-Trp^3, Arg^5, D-Tyr^6, D-Ala^10)LHRH | 2 µg/mL
2 | (N-Ac-D-Nal(2)^1, D-pCl-Phe^2, D-Trp^3, D-Arg^6)LHRH | 0.2 µg/mL
3 | (N-Ac-D-Nal(2)^1, D-αMe-pCl-Phe^2, D-Pal(3)^3, D-Arg^6, hArg(Et2)^8, D-Ala^10)LHRH | 4.9 µg/mL
4 | (N-Ac-D-Nal(2)^1, pCl-Phe^2, D-Trp^3, D-Lys(iPr)^8,Lys(iPr)^6, D-Ala^10)LHRH | 6.6 µg/mL
5 | LHRH: natural releasing hormone LHRH, a decapeptide comprised of naturally occurring amino acids | 328 µg/mL
